Series [1] deals with T-cell depleted (CD3 or CD3/CD19 depleted) peripheral blood NK cell populations. Kind of series: CD62L expression on T-cell depleted peripheral blood NK cell cultures (FACS). It is filed as cell-based, human. Particulars: 2.5 and 5.0 mM nicotinamide, after 7, 14 and 21 days in culture. The procedure: For depletion procedure, total nuclear cells from umbilical cord blood (CB), bone marrow (BM) or peripheral blood (PB) cells were layered on a Ficoll-Hypaque gradient (1.077 g/mL; Sigma), and centrifuged at 800×g for 30 minutes for separation of the mononuclear cells. The cells in the interface layer were collected and washed three times in phosphate-buffered saline (PBS) (Biological Industries, Israel) containing 0.5% HSA. Optionally, cells are not separated on the Ficoll-Hypaque gradient but washed three times in phosphate-buffered saline (PBS) (Biological Industries) containing 0.5% HSA (“total mononuclear fraction”). […] After negative depletion the cells were counted and characterized by FACS analysis.
3. […] To estimate number of cells in culture, cell samples were counted following staining with trypan blue. […]
The cells were washed with a PBS solution containing 1% BSA, and stained (at 4° C. for 30 min) with fluorescein isothiocyanate (FITC)- or phycoerythrin (PE)-conjugated antibodies or allophycocyanin (APC). The cells were then washed in the above buffer and analyzed using a FACScalibur® flow cytometer (Becton Dickinson, San Jose, Calif., USA). […] Emission of 10^4 cells was measured using logarithmic amplification, and analyzed using the CellQuest software (Becton Dickinson). […]

In series [2] the test system is peripheral blood CD56+ NK cells. Description: Proliferation of peripheral blood CD56+ NK cells co-cultured with irradiated feeder cells. It is filed as cell-based, human. Particulars: 2.5 mM and 5 mM nicotinamide, day 21, irradiated feeder cells 10:1. The source says: NK cell cells from total mononuclear cell fraction, purified CD56+ or CD56+CD3− cells from total nuclear or mononuclear cells or from the fraction depleted from CD34+ or CD133+ cells, or CD3+ depleted, or CD3+/CD19+ depleted mononuclear cell fraction from PB, BM and CB can be cultured with irradiated stroma. For the preparation of irradiated stroma (feeder cells), mononuclear cells were irradiated with 3000 rad. After CD56 or CD56+CD3− selection or CD3 depletion the cells were counted and characterized by FACS analysis as described hereinabove. Cells were cultured as described hereinabove, with and without nicotinamide, with and without irradiated stroma at a concentration of irradiated cells of 20×10^5 cells/ml.
To determine total number of cells on day 7, 14 and 21, the cell count/ml was multiplied by the volume of the culture medium. In order to determine the number of NK cells in culture, the total number of cells in culture was multiplied by the percent of CD56+/CD3− cells measured with the FACS on days 7, 14 or 21. To measure fold expansion, total number of NK cells on days 7, 14 and 21 was divided by total number of NK cells seeded in culture on day-0.
Peripheral blood-derived mononuclear cell fractions were CD3 depleted and then selected for CD56+ cells by immunobead purification. […]

In series [3] the test system is colo205 colorectal adenocarcinoma cell line. It is filed as cell-based. The conditions noted are these: 5 mM nicotinamide, all E:T ratios tested (1:1 to 10:1).

From US20130011376A1, “Methods for Enhancing Natural Killer Cell Proliferation and Activity” (GAMIDA CELL LTD., priority 2009, published 2013) come the findings set out here.

For the compound `NC(=O)c1cccnc1` [nicotinamide], in series [1], the “CD62L-positive cells among the NK cells” value is recorded as “increased percentage”. The “fold increase of NK cells relative to control (cytokines+irradiated mononuclear cells)” value in series [2] was “at least 4 times”. Also, in series [3], the “cytotoxic potential towards solid tumor cells” value was “increased killing potential”.
